Several values for one entry are separate records, joined by “and”; a condition that tells them apart may be missing. Equal values may be shown once.
Legend:
BA/F3 (insSVD) cells = assay: Ba/F3-EGFR-insSVD cell survival assay (Cell Titer-Glo); type: cell-based
Summary of the method: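 Ba/F3 cells stably expressing retroviral EGFR-insSVD or insSVD T790M, grown without IL-3 on 10 ng/ml EGF, 4000 cells/well. Compound pinned in, 48 h at 37° C. Viability by CellTiter-Glo luminescence.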

[1] = molecular target: T1, mutEGFR (D770_N771insNPG, T790) (Homo sapiens, UniProt P00533, INS770NPG/T790M); assay: mutEGFR (D770_N771insNPG, T790) kinase assay; type: biochemical
T1 construct: exact insNPG construct not described; in-house EGFR proteins were N-terminal GST fusions from baculovirus/insect cells (borders R669-A1210 given only for WT, insSVD, insASV)
From the text: The different EGFR proteins used in the biochemical kinase activity inhibition assays were generated inhouse by expression in insect cells using Baculo Virus system and subsequent purification as described in the following paragraphs.
The cDNAs encoding the various protein sequences from human EGFR human (P00533) were optimized for expression in eukaryotic cells and synthesized by the GeneArt Technology at Life Technologies.

[2] = molecular target: T2, mutEGFR (D770_N771insSVD) (Homo sapiens, UniProt P00533, DUP768-770); assay: Exon20-Mutant-EGFR (D770_N771insSVD) kinase assay (TR-FRET); type: biochemical
T2 construct: GST-EGFR #3 (SVD between D770 and N771); made in house; host or cells: Sf9 insect cells (baculovirus)

[3] = Table 3a, cell survival, Cell Titer-Glo, with 10 ng/ml EGF, without IL-3, 48 h
[4] = mutEGFR (D770_N771insSVD) kinase assay IC50, Table 2a, D770_N771insSVD, 2 mM ATP
[5] = Mus musculus, BaF3, 48 h, Table 3a, cell survival, Cell Titer-Glo, with 10 ng/ml EGF, without IL-3

T2 sequence (P00533 with tags, fused parts or gaps DUP768-770): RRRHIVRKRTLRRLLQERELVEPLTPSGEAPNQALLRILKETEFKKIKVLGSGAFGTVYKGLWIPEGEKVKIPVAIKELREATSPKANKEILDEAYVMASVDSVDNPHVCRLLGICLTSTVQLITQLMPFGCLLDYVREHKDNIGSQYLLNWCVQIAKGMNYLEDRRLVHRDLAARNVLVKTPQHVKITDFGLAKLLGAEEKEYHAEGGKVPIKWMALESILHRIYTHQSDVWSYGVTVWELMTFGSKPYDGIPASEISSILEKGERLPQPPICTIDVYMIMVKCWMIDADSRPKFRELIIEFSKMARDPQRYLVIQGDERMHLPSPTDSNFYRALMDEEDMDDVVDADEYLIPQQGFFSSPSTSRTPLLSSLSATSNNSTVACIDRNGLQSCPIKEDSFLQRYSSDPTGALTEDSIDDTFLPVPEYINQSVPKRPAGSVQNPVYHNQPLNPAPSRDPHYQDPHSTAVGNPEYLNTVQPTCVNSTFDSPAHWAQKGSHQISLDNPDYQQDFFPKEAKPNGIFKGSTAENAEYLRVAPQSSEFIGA
T1 sequence (P00533 with tags, fused parts or gaps INS770NPG/T790M limits assumed): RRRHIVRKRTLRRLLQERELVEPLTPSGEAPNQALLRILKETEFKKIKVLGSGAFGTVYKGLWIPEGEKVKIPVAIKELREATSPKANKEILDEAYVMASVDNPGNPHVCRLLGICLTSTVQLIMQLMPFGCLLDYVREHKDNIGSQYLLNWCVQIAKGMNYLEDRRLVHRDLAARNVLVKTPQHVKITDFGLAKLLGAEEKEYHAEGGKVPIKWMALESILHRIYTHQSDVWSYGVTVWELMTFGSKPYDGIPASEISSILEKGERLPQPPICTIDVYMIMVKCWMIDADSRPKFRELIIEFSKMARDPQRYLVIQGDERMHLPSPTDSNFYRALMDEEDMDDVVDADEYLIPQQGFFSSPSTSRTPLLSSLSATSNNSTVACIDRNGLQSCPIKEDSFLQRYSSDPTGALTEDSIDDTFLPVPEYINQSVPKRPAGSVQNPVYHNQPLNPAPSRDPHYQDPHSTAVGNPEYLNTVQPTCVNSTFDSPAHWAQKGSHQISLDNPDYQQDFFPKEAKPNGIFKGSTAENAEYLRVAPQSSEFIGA

| Structure (SMILES) | IC50 (BA/F3 (insSVD) cells; [3]) [nM] | IC50 ([1]; Table 2a, D770_N771insNPG) [nM] | IC50 [2, 4] | IC50 (BA/F3 (insSVD) cells; [5]) [nM] | IC50 (BA/F3 (insSVD) cells; Mus musculus, BaF3, 48 h, Table 3b, Ba/F3 EGFR-insSVD) [nM] | IC50 ([1]; Table 2b (from US Priority Patent Application), mutEGFR D770_N771insNPG) [nM] | IC50 ([2]; mutEGFR (D770_N771insSVD) kinase assay IC50, Table 2b (from US Priority Patent Application), mutEGFR D770_N771insSVD) |
| --- | --- | --- | --- | --- | --- | --- | --- |
| Cc1c[nH]c2nccc(-c3c(-c4ccc(C(F)(F)F)cc4)nn4c3C(C)N(C(=O)/C=C/CN(C)C)CC4)c12 (single isomer, unassigned; isomer 1) [Example 265, (E)-4-(dimethylamino)-1-(4-methyl-3-(3-methyl-1H-pyrrolo[2,3-b]pyridin-4-yl)-2-(4-(trifluoromethyl)phenyl)-6,7-dihydropyrazolo[1,5-a]pyrazin-5(4H)-yl) but-2-en-1-one (isomer 1)] | 172 | 6300 | 4040 nM |  |  |  |  |
| Cc1c[nH]c2nccc(-c3c(-c4ccc(F)cc4)nn4c3C(C)N(C(=O)/C=C/CN(C)C)CC4)c12 (single isomer, unassigned; isomer 1) [Example 268, (E)-4-(dimethylamino)-1-(2-(4-fluorophenyl)-4-methyl-3-(3-methyl-1H-pyrrolo[2,3-b]pyridin-4-yl)-6,7-dihydropyrazolo[1,5-a]pyrazin-5(4H)-yl) but-2-en-1-one (isomer 1)] | 279 | 446 | 940 nM |  |  |  |  |
| C=CC(=O)N1Cc2c(-c3ccncc3)c(-c3ccc(OC)cc3)nn2C(C)C1 (single isomer, unassigned; isomer 1) [Example 274, 1-[2-(4-methoxyphenyl)-7-methyl-3-(pyridin-4-yl)-6,7-dihydropyrazolo[1,5-a]pyrazin-5(4H)-yl]prop-2-en-1-one (isomer 1)] | 34.1 | 3.11 | 1.35 nM |  |  |  |  |
| C=CC(=O)N1CCn2nc(-c3ccc(Cl)cc3F)c(-c3ccncc3)c2C1C (single isomer, unassigned; isomer 1) [Example 278, 1-[2-(4-chloro-2-fluorophenyl)-4-methyl-3-(pyridin-4-yl)-6,7-dihydropyrazolo[1,5-a]pyrazin-5(4H)-yl]prop-2-en-1-one (isomer 1)] | 9.07 | 0.551 | 0.204 nM |  |  |  |  |
| C=CC(=O)N1Cc2c(-c3ccncc3)c(-c3ccc(Cl)cc3F)nn2C(C)C1 (single isomer, unassigned; isomer 1) [Example 282, 1-[2-(4-chloro-2-fluorophenyl)-7-methyl-3-(pyridin-4-yl)-6,7-dihydropyrazolo[1,5-a]pyrazin-5(4H)-yl]prop-2-en-1-one (isomer 1)] |  | 0.282 | 0.117 nM | 6.15 |  |  |  |
| CC1c2c(-c3ccncc3)c(-c3ccc(Cl)cc3F)nn2CCN1C(=O)/C=C/CN(C)C (single isomer, unassigned; isomer 1) [Example 285, (2E)-1-[2-(4-chloro-2-fluorophenyl)-4-methyl-3-(pyridin-4-yl)-6,7-dihydropyrazolo[1,5-a]pyrazin-5(4H)-yl]-4-(dimethylamino)but-2-en-1-one (isomer 1)] | 42 | 0.644 | 0.232 nM |  |  |  |  |
| CC1CN(C(=O)/C=C/CN(C)C)Cc2c(-c3ccncc3)c(-c3ccc(Cl)cc3F)nn21 (single isomer, unassigned; isomer 1) [Example 287, (2E)-1-[2-(4-chloro-2-fluorophenyl)-7-methyl-3-(pyridin-4-yl)-6,7-dihydropyrazolo[1,5-a]pyrazin-5(4H)-yl]-4-(dimethylamino)but-2-en-1-one (isomer 1)] |  | 0.415 | 0.22 nM | 37.3 |  |  |  |
| C=CC(=O)N1C(C)c2c(-c3ccncc3)c(-c3ccc(Cl)cc3F)nn2C[C@@H]1C (single isomer, unassigned; isomer 1) [Example 292] | 4.08 | 0.34 | 0.129 nM |  |  |  |  |
| C=CC(=O)N1CCn2nc(-c3ccc(C(F)(F)F)cc3)c(-c3ccnc4[nH]ccc34)c2C1C (single isomer, unassigned; isomer 2) [Example 247, 1-(4-methyl-3-(1H-pyrrolo[2,3-b]pyridin-4-yl)-2-(4-(trifluoromethyl)phenyl)-6,7-dihydropyrazolo[1,5-a]pyrazin-5(4H)-yl) prop-2-en-1-one (isomer 2)] |  | 933 | 6.99 nM | 134 |  |  |  |
| C=CC(=O)N1CCn2nc(-c3ccc(F)cc3)c(-c3ccnc4[nH]cc(C)c34)c2C1C (single isomer, unassigned; isomer 2) [Example 250, 1-(2-(4-fluorophenyl)-4-methyl-3-(3-methyl-1H-pyrrolo[2,3-b]pyridin-4-yl)-6,7-dihydropyrazolo[1,5-a]pyrazin-5(4H)-yl) prop-2-en-1-one (isomer 2)] | 75.1 | 216 | 435 nM |  |  |  |  |
| CC1c2c(-c3ccnc4[nH]ccc34)c(-c3ccc(C(F)(F)F)cc3)nn2CCN1C(=O)/C=C/CN(C)C (single isomer, unassigned; isomer 2) [Example 252, 4-(dimethylamino)-1-[4-methyl-3-(1H-pyrrolo[2,3-b]pyridin-4-yl)-2-[4-(trifluoromethyl)phenyl]-6,7-dihydropyrazolo[1,5-a]pyrazin-5(4H)-yl]but-2-en-1-one (isomer 2)] |  | 2840 | 11.7 nM | 180 |  |  |  |
| Cc1c[nH]c2nccc(-c3c(-c4ccc(C(F)(F)F)cc4)nn4c3C(C)N(C(=O)/C=C/CN(C)C)CC4)c12 (single isomer, unassigned; isomer 2) [Example 253, 4-(dimethylamino)-1-(4-methyl-3-(3-methyl-1H-pyrrolo[2,3-b]pyridin-4-yl)-2-(4-(trifluoromethyl)phenyl)-6,7-dihydropyrazolo[1,5-a]pyrazin-5(4H)-yl) but-2-en-1-one (isomer 2)] | 490 | 3950 | 247 nM |  |  |  |  |
| Cc1c[nH]c2nccc(-c3c(-c4ccc(F)cc4)nn4c3C(C)N(C(=O)/C=C/CN(C)C)CC4)c12 (single isomer, unassigned; isomer 2) [Example 256, (E)-4-(dimethylamino)-1-(2-(4-fluorophenyl)-4-methyl-3-(3-methyl-1H-pyrrolo[2,3-b]pyridin-4-yl)-6,7-dihydropyrazolo[1,5-a]pyrazin-5(4H)-yl) but-2-en-1-one (isomer 2)] |  | > 1630 | 7490 nM | 158 |  |  |  |
| C=CC(=O)N1CCn2nc(-c3ccc(F)cc3)c(-c3ccnc4[nH]ccc34)c2C1C (single isomer, unassigned; isomer 2) [Example 261, 1-(2-(4-fluorophenyl)-4-methyl-3-(1H-pyrrolo[2,3-b]pyridin-4-yl)-6,7-dihydropyrazolo[1,5-a]pyrazin-5(4H)-yl) prop-2-en-1-one (isomer 2)] | 111 | 7.3 | 6.5 nM |  |  |  |  |
| CC1c2c(-c3ccnc4[nH]ccc34)c(-c3ccc(F)cc3)nn2CCN1C(=O)/C=C/CN(C)C (single isomer, unassigned; isomer 2) [Example 267, (E)-4-(dimethylamino)-1-(2-(4-fluorophenyl)-4-methyl-3-(1H-pyrrolo[2,3-b]pyridin-4-yl)-6,7-dihydropyrazolo[1,5-a]pyrazin-5(4H)-yl) but-2-en-1-one (isomer 2)] | 257 | 21.7 | 24.9 nM |  |  |  |  |
| C=CC(=O)N1Cc2c(-c3ccncc3)c(-c3ccc(OC)cc3)nn2C(C)C1 (single isomer, unassigned; isomer 2) [Example 275, 1-[2-(4-methoxyphenyl)-7-methyl-3-(pyridin-4-yl)-6,7-dihydropyrazolo[1,5-a]pyrazin-5(4H)-yl]prop-2-en-1-one (isomer 2)] | 16.8 | 1.22 | 0.476 nM |  |  |  |  |
| C=CC(=O)N1CCn2nc(-c3ccc(Cl)cc3F)c(-c3ccncc3)c2C1C (single isomer, unassigned; isomer 2) [Example 279, 1-[2-(4-chloro-2-fluorophenyl)-4-methyl-3-(pyridin-4-yl)-6,7-dihydropyrazolo[1,5-a]pyrazin-5(4H)-yl]prop-2-en-1-one (isomer 2)] | 429 | 62.2 | 50.6 nM |  |  |  |  |
| CC1c2c(-c3ccncc3)c(-c3ccc(Cl)cc3F)nn2CCN1C(=O)/C=C/CN(C)C (single isomer, unassigned; isomer 2) [Example 286, (2E)-1-[2-(4-chloro-2-fluorophenyl)-4-methyl-3-(pyridin-4-yl)-6,7-dihydropyrazolo[1,5-a]pyrazin-5(4H)-yl]-4-(dimethylamino)but-2-en-1-one (isomer 2)] | 843 | 95.7 | 71 nM |  |  |  |  |
| C=CC(=O)N1CCn2nc(-c3ccc(Cl)c(C)c3)c(-c3ccncc3)c2C1 [Example 2, 1-[2-(4-chloro-3-methylphenyl)-3-(pyridin-4-yl)-6,7-dihydropyrazolo[1,5-a]pyrazin-5(4H)-yl]prop-2-en-1-one] |  | 0.146 | 0.105 nM and < 0.0725 nM | 20.6 | 20.6 | 0.146 | < 0.0725 nM and 0.105 nM |
